From PubChem BioAssay AID236 (DTP/NCI, 2004)
Where “and” joins values, the source holds several entries; their conditions need not be identical. Equal entries are not always repeated. Toxic doses and inconclusive results are not listed. Starred links: 1 amine or outer side, 2 acyl side, 3 side chain; linkers in the order of their positions; H or OH if unused. Positions of bridges follow the written chain, without caps; N, C: chain ends. Non-standard residues stand in square brackets, D forms with d. Residues, ends and D or L forms follow the SMILES beside them. Chains are numbered I, II in the order given. Actinocin(9to1) = Cc1c2oc3c(C)ccc(C(=O)[*:1])c3nc-2c(C(=O)[*:2])c(N)c1=O; aThr = C[C@H](O)[C@H](N)C(=O)O; NMeV = CN[C@H](C(=O)O)C(C)C; Sar = CNCC(=O)O

System: AK4 lymphoid leukemia ip, C3AKF1 mice, survival
Assay: NCI In Vivo Anticancer Drug Screen. Data for tumor model AK4 Lymphoid Leukemia (intraperitoneal) in C3AKF1 (CHKRF1) mice
Conditions: endpoint: median survival time, higher = longer survival
Method: The antitumor activity of compounds was measured in mice bearing transplantable tumors. Survival or tumor size were measured and the results are expressed as the measurement made in the treated group (T) divided by the measurement made in the vehicle treated control group (C). The tumor model used in this assay is AK4 Lymphoid Leukemia (intraperitoneal) in C3AKF1 (CHKRF1) mice

[1] = dose: 6.0 mg/kg/injection, schedule: Q01DX010 (ip), vehicle: saline
[2] = dose: 12.0 mg/kg/injection, schedule: Q01DX010 (ip), vehicle: saline
[3] = dose: 2.0 mg/kg/injection, schedule: Q01DX010 (ip), vehicle: saline
[4] = dose: 4.0 mg/kg/injection, schedule: Q01DX010 (ip), vehicle: saline
[5] = dose: 8.0 mg/kg/injection, schedule: Q01DX010 (ip), vehicle: saline
[6] = dose: 0.5 mg/kg/injection, schedule: Q01DX010 (ip), vehicle: saline
[7] = dose: 1.0 mg/kg/injection, schedule: Q01DX010 (ip), vehicle: saline

S=c1nc[nH]c2nc[nH]c12
T/C (dose: 5.0 mg/kg/injection, schedule: Q01DX010 (ip), vehicle: alkali diluted with saline): 100 % of control | T/C (dose: 5.0 mg/kg/injection, schedule: Q01DX Z (ip), vehicle: saline): 93 % of control | T/C (dose: 10.0 mg/kg/injection, schedule: Q01DX010 (ip), vehicle: alkali diluted with saline): 95 % of control and 118 % of control | T/C (dose: 10.0 mg/kg/injection, schedule: Q01DX Z (ip), vehicle: saline): 93 % of control and 96 % of control | T/C (dose: 20.0 mg/kg/injection, schedule: Q01DX010 (ip), vehicle: alkali diluted with saline): 100 % of control and 112 % of control | T/C (dose: 20.0 mg/kg/injection, schedule: Q01DX Z (ip), vehicle: saline): 90 % of control and 106 % of control | T/C (dose: 40.0 mg/kg/injection, schedule: Q01DX010 (ip), vehicle: alkali diluted with saline): 93 % of control and 110 % of control | T/C (dose: 40.0 mg/kg/injection, schedule: Q01DX Z (ip), vehicle: saline): 93 % of control and 96 % of control | T/C (dose: 80.0 mg/kg/injection, schedule: Q01DX010 (ip), vehicle: alkali diluted with saline): 100 % of control | T/C (dose: 80.0 mg/kg/injection, schedule: Q01DX Z (ip), vehicle: saline): 93 % of control and 96 % of control

O=C(Nc1ccc(C2=NCCN2)cc1)c1ccc(C(=O)Nc2ccc(C3=NCCN3)cc2)c([N+](=O)[O-])c1
T/C [1]: 150 % of control | T/C [2]: 155 % of control and 210 % of control | T/C (dose: 18.0 mg/kg/injection, schedule: Q01DX010 (ip), vehicle: saline): 100 % of control and 240 % of control

N=C(N)c1ccc(Nc2ccc(C(=N)N)cc2)cc1
T/C (dose: 1.5 mg/kg/injection, schedule: Q01DX010 (ip), vehicle: saline): 88 % of control | T/C (dose: 3.0 mg/kg/injection, schedule: Q01DX010 (ip), vehicle: saline): 88 % of control and 122 % of control | T/C [1]: 94 % of control and 105 % of control | T/C [2]: 94 % of control and 111 % of control

Cc1c2oc3c(C)ccc(C(=O)N[C@@H]4C(=O)N[C@H](C(C)C)C(=O)N5CCC[C@H]5C(=O)N(C)CC(=O)N(C)[C@@H](C(C)C)C(=O)O[C@H]4C)c3nc-2c(C(=O)N[C@@H]2C(=O)N[C@H](C(C)C)C(=O)N3CCC[C@H]3C(=O)N(C)CC(=O)N(C)[C@@H](C(C)C)C(=O)O[C@H]2C)c(N)c1=O (I: [aThr][dV]P[Sar][NMeV] / II: [aThr][dV]P[Sar][NMeV]; ester I:1-I:C, II:1-II:C; linker I:N-II:N via Actinocin(9to1))
T/C (dose: 12.5 micrograms/kg/injection, schedule: Q01DX010 (ip), vehicle: other): 100 % of control and 86 % of control | T/C (dose: 25.0 micrograms/kg/injection, schedule: Q01DX010 (ip), vehicle: other): 95 % of control and 105 % of control | T/C (dose: 50.0 micrograms/kg/injection, schedule: Q01DX010 (ip), vehicle: other): 100 % of control | T/C (dose: 100.0 micrograms/kg/injection, schedule: Q01DX010 (ip), vehicle: other): 100 % of control and 109 % of control

O=C(Nc1ccc(NC2=NCCN2)cc1)c1ccc(C(=O)Nc2ccc(NC3=NCCN3)cc2)cc1
T/C [3]: 95 % of control and 105 % of control | T/C [4]: 90 % of control and 110 % of control | T/C [5]: 110 % of control | T/C (dose: 16.0 mg/kg/injection, schedule: Q01DX010 (ip), vehicle: saline): 150 % of control

CN1CC[C@]23c4c5ccc(O)c4O[C@H]2C(=O)CC[C@H]3[C@H]1C5
T/C [6]: 94 % of control | T/C [7]: 105 % of control | T/C [3]: 94 % of control | T/C [4]: 88 % of control and 94 % of control | T/C [5]: 88 % of control

Clc1ncnc2nc[nH]c12
T/C (dose: 7.5 mg/kg/injection, schedule: Q01DX010 (ip), vehicle: saline): 100 % of control and 87 % of control | T/C (dose: 15.0 mg/kg/injection, schedule: Q01DX010 (ip), vehicle: saline): 100 % of control and 114 % of control | T/C (dose: 30.0 mg/kg/injection, schedule: Q01DX010 (ip), vehicle: saline): 100 % of control and 87 % of control | T/C (dose: 60.0 mg/kg/injection, schedule: Q01DX010 (ip), vehicle: saline): 87 % of control and 100 % of control

CC(CCC(C)OS(C)(=O)=O)OS(C)(=O)=O (configuration not stated)
T/C [3]: 88 % of control | T/C [4]: 88 % of control | T/C [5]: 94 % of control

C1CN1c1nc(N2CC2)nc(N2CC2)n1
T/C (dose: 0.25 mg/kg/injection, schedule: Q01DX010 (ip), vehicle: saline): 116 % of control | T/C [6]: 150 % of control | T/C [7]: 111 % of control

O=C1C(NC(=O)C2CCCCC2)=C(N2CC2)C(=O)C(NC(=O)C2CCCCC2)=C1N1CC1
T/C (dose: 25.0 mg/kg/injection, schedule: Q01DX010 (ip), vehicle: saline): 90 % of control | T/C (dose: 50.0 mg/kg/injection, schedule: Q01DX010 (ip), vehicle: saline): 95 % of control and 100 % of control | T/C (dose: 100.0 mg/kg/injection, schedule: Q01DX010 (ip), vehicle: saline): 95 % of control and 100 % of control | T/C (dose: 200.0 mg/kg/injection, schedule: Q01DX010 (ip), vehicle: saline): 100 % of control and 110 % of control | T/C (dose: 400.0 mg/kg/injection, schedule: Q01DX010 (ip), vehicle: saline): 116 % of control

O[C@H](CN1CC1)[C@@H](O)CN1CC1
T/C (dose: 250.0 micrograms/kg/injection, schedule: Q01DX010 (ip), vehicle: saline): 164 % of control | T/C (dose: 1000.0 micrograms/kg/injection, schedule: Q01DX010 (ip), vehicle: saline): 105 % of control
